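Tested at 5 concentrations; 48 h exposure; 96-well plates; endpoints linearly interpolated, else capped at highest concentration. GI50 = concentration required for 50% inhibition of growth. TGI: concentration producing complete growth inhibition.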
Assays:
Assay in all cases: NCI anticancer screen, dose series, 48 h
CCRF-CEM leukemia = tested on: CCRF-CEM leukemia
CAKI-1 renal = tested on: CAKI-1 renal
SR leukemia = tested on: SR leukemia
NCI-H522 lung = tested on: NCI-H522 lung
MDA-MB-435 = tested on: MDA-MB-435
SN12C renal = tested on: SN12C renal
A549 NSCLC = tested on: A549 NSCLC
U251 CNS = tested on: U251 CNS
PC-3 prostate = tested on: PC-3 prostate
OVCAR-4 ovarian = tested on: OVCAR-4 ovarian
RPMI-8226 leukemia = tested on: RPMI-8226 leukemia
LOX IMVI melanoma = tested on: LOX IMVI melanoma
IGROV1 ovarian = tested on: IGROV1 ovarian
HOP-62 NSCLC = tested on: HOP-62 NSCLC
NCI-H226 lung = tested on: NCI-H226 lung
TK-10 renal = tested on: TK-10 renal
BT-549 breast = tested on: BT-549 breast
SF-295 CNS = tested on: SF-295 CNS
NCI/ADR-RES ovarian = tested on: NCI/ADR-RES ovarian
RXF 393 renal = tested on: RXF 393 renal
UO-31 renal = tested on: UO-31 renal
SNB-75 CNS = tested on: SNB-75 CNS
HL-60(TB) leukemia = tested on: HL-60(TB) leukemia
MDA-MB-231 breast = tested on: MDA-MB-231 breast
UACC-62 melanoma = tested on: UACC-62 melanoma
SK-MEL-2 melanoma = tested on: SK-MEL-2 melanoma
786-0 renal = tested on: 786-0 renal
UACC-257 melanoma = tested on: UACC-257 melanoma

## Cc1ccc2c(c1)C(=O)/C(=C/c1cccc(OCC(=O)c3ccc(Cl)cc3)c1)CS2
CCRF-CEM leukemia
  GI50: 2.38 µM
  TGI: 6.83 µM
CAKI-1 renal
  GI50: 12.4 µM
  TGI: 37 µM
SR leukemia
  GI50: 1.8 µM
  TGI: 4.28 µM
NCI-H522 lung
  GI50: 3.94 µM
  TGI: 18.2 µM
MDA-MB-435
  GI50: 2.4 µM
  TGI: 6.26 µM
SN12C renal
  GI50: 14.6 µM
  TGI: 62.7 µM
A549 NSCLC
  GI50: 33.4 µM
  TGI: > 100 µM
U251 CNS
  GI50: 3.14 µM
  TGI: 13.6 µM
PC-3 prostate
  GI50: 2.99 µM
OVCAR-4 ovarian
  GI50: 4.07 µM
  TGI: 18.5 µM
RPMI-8226 leukemia
  GI50: 1.85 µM
  TGI: 4.47 µM
LOX IMVI melanoma
  GI50: 1.84 µM
  TGI: 3.87 µM
IGROV1 ovarian
  GI50: 5.65 µM
  TGI: 20.4 µM
HOP-62 NSCLC
  GI50: 13 µM
  TGI: 30.6 µM
NCI-H226 lung
  GI50: 14.9 µM
  TGI: 31.4 µM
TK-10 renal
  GI50: 14.1 µM
  TGI: 39.5 µM
BT-549 breast
  GI50: 12.8 µM
  TGI: 33.8 µM
SF-295 CNS
  GI50: 3.17 µM
  TGI: 12.1 µM
NCI/ADR-RES ovarian
  GI50: 2.68 µM
  TGI: 9.02 µM
RXF 393 renal
  GI50: 16.8 µM
  TGI: 34.8 µM
UO-31 renal
  GI50: 2.93 µM
  TGI: 18.3 µM
SNB-75 CNS
  GI50: 6.39 µM
  TGI: 44.9 µM
HL-60(TB) leukemia
  GI50: 2.95 µM
  TGI: 13.4 µM
MDA-MB-231 breast
  GI50: 8.21 µM
  TGI: 76.1 µM
UACC-62 melanoma
  GI50: 9.14 µM
  TGI: 25.8 µM
SK-MEL-2 melanoma
  GI50: 8.03 µM
  TGI: 22.3 µM
786-0 renal
  GI50: 11.3 µM
  TGI: 24.6 µM
UACC-257 melanoma
  GI50: 13.9 µM
  TGI: 33.3 µM

Source: PubChem BioAssay (NCI)
